Assay [1] concerns the target T1, E. coli glutamine synthetase (rE. coli GS) (Escherichia coli, UniProt P0A9C5).
T1 construct: gene glnA; recombinant with 6xHis tag
T1 sequence (P0A9C5 2-469): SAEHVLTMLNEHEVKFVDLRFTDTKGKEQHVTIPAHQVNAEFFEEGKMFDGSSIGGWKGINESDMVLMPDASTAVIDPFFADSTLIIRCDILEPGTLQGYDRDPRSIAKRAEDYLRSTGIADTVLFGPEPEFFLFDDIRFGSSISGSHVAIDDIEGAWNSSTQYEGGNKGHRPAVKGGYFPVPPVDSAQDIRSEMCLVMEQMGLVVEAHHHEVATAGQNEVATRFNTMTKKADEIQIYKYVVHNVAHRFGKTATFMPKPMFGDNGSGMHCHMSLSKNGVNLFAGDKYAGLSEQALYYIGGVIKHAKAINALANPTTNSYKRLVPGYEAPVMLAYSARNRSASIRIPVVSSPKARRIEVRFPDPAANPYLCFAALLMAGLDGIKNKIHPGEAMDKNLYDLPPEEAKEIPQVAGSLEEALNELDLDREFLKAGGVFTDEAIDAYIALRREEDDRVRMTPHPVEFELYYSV
Nature of the assay: feedback inhibition enzyme assay at […]. In kind it is biochemical.

The target of assay [2] is T2, Plasmodium berghei glutamine synthetase (rPbGS) (Plasmodium berghei, UniProt A0A509ANX1).
T2 construct: gene PBANKA_0823500; recombinant with N-terminal 6xHis tag, expressed in E. coli
T2 sequence (A0A509ANX1 1-553): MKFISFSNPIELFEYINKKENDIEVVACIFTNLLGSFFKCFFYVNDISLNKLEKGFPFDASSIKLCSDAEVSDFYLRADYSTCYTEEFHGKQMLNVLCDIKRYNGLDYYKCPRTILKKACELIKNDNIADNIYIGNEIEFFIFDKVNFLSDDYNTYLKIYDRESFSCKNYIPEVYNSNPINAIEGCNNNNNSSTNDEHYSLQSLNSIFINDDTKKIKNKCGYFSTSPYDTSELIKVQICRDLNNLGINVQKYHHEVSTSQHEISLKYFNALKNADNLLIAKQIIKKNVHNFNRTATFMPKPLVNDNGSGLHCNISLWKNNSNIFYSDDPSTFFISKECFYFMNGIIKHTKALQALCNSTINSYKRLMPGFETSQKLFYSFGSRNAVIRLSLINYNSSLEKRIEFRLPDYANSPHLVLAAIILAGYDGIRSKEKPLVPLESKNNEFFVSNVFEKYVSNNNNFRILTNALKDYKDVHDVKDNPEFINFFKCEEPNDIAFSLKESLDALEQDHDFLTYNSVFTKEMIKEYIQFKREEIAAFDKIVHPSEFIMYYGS
Put plainly: GS enzyme assay (Pi release/HPLC) with pre-incubation with ATP and MgCl2; kinetic Ki. In kind it is biochemical.

The target in assay [3] is T3, Plasmodium falciparum glutamine synthetase lacking first peptide insert (ΔI1rPfGS) (Plasmodium falciparum, UniProt C0H551, DEL174-196).
T3 construct: gene PF3D7_0922600; recombinant, 6xHis tag, first peptide insert (amino acids 174–196) deleted
In kind it is biochemical.

In assay [4] the target is T4, Plasmodium falciparum glutamine synthetase (rPfGS) (Plasmodium falciparum, UniProt C0H551).
T4 construct: gene PF3D7_0922600
T4 sequence (C0H551 1-543): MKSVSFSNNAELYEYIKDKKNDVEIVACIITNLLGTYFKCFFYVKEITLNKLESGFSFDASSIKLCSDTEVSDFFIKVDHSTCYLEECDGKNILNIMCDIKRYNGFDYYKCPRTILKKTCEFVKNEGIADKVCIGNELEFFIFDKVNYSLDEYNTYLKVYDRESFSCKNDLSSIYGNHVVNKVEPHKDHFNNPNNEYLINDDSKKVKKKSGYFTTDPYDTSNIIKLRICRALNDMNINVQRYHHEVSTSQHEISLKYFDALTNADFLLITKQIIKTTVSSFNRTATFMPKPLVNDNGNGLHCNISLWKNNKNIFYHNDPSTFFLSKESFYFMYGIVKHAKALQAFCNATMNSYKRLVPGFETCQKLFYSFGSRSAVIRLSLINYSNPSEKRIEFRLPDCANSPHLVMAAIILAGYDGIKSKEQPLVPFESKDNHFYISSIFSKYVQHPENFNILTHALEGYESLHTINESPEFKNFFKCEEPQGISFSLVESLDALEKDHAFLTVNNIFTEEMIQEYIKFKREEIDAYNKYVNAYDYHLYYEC
Nature of the assay: biochemical.

As to `Nc1ncnc2c1ncn2[C@@H]1O[C@H](COP(=O)(O)O)[C@@H](O)[C@H]1O` [AMP, adenosine monophosphate], the “%” value in assay [1] is 30–40% inhibition at 5 mM.
Broadly, the Ki is a measure of affinity in units of concentration, obtained from inhibition or displacement. Read a high Ki as lower affinity. Turning to `CS(=N)(=O)CC[C@H](N)C(=O)O` (stereo partly drawn) [MSO, L-Methionine sulfoximine], the inhibition constant Ki in assay [2] is 5.44 ± 1.07 µM. The “GS enzyme assay, percent activity vs control” value in assay [3] is “ΔI1rPfGS behaved like rPfGS in terms of specific activity (Fig. 3b), inhibition by MSO and PPT (Fig. 3c)”.
Regarding `CP(=O)(O)CC[C@H](N)C(=O)O` [PPT, Phosphinothricin], the Ki in assay [4] turned out to be 2.31 ± 1.1 µM; in assay [2] it was 8.07 ± 3.31 µM. Also, the “GS enzyme assay, percent activity vs control” value in assay [3] was “ΔI1rPfGS behaved like rPfGS in terms of specific activity (Fig. 3b), inhibition by MSO and PPT (Fig. 3c)”.
For the molecule `C[C@H](N)C(=O)O` [alanine], in assay [1], the “%” value is 30–40% inhibition at 5 mM.

The record behind these values is article PMC10349072, “Distinct evolution of type I glutamine synthetase in Plasmodium and its species-specific requirement” (Nature Communications, 2023).
